Tests used:
[1] = molecular target: Carbonic anhydrase 5A, mitochondrial (Homo sapiens, UniProt P35218); assay: Inhibition of human carbonic anhydrase 5A preincubated for 15 mins by stopped-flow CO2 hydration assay
[2] = molecular target: Carbonic anhydrase 7 (Homo sapiens, UniProt P43166); assay: Inhibition of human carbonic anhydrase 7 preincubated for 15 mins by stopped-flow CO2 hydration assay
[3] = molecular target: Carbonic anhydrase 9 (Homo sapiens, UniProt Q16790); assay: Inhibition of human catalytic domain of carbonic anhydrase 9 preincubated for 15 mins by stopped-flow CO2 hydration assay
[4] = molecular target: Carbonic anhydrase 4 (Homo sapiens, UniProt P22748); assay: Inhibition of human carbonic anhydrase 4 preincubated for 15 mins by stopped-flow CO2 hydration assay
Sequence of Carbonic anhydrase 4 (P22748 whole entry): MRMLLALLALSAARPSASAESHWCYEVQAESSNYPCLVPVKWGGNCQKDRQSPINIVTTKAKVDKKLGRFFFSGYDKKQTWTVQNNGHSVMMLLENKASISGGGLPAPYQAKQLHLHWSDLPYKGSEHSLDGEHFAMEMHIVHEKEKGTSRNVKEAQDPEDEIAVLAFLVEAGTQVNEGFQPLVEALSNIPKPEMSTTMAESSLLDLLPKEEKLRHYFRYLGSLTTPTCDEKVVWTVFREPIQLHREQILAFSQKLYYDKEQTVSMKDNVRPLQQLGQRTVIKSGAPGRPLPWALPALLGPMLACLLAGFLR

[5] = molecular target: Carbonic anhydrase 1 (Homo sapiens, UniProt P00915); assay: Inhibition of human carbonic anhydrase 1 preincubated for 15 mins by stopped-flow CO2 hydration assay
Sequence of Carbonic anhydrase 1 (P00915 whole entry): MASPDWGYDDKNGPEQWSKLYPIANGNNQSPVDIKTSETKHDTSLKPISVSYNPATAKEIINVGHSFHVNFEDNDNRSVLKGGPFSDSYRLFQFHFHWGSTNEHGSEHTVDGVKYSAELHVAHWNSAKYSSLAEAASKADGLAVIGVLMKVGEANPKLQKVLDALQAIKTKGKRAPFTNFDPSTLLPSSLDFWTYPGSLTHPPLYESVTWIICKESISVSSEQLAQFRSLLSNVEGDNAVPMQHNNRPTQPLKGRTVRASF

[6] = molecular target: Carbonic anhydrase 5B, mitochondrial (Homo sapiens, UniProt Q9Y2D0); assay: Inhibition of human carbonic anhydrase 5B preincubated for 15 mins by stopped-flow CO2 hydration assay
Sequence of Carbonic anhydrase 5B, mitochondrial (Q9Y2D0 whole entry, the tested form may be a part): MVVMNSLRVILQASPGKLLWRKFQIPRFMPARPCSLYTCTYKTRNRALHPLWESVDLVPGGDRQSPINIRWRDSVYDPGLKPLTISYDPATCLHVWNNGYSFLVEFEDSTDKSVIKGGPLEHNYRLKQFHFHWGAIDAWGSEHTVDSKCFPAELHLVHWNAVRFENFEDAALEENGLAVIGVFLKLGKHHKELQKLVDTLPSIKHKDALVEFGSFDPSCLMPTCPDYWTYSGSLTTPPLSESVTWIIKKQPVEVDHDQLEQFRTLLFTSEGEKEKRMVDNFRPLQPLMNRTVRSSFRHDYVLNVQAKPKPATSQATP

[7] = molecular target: Carbonic anhydrase 12 (Homo sapiens, UniProt O43570); assay: Inhibition of human catalytic domain of carbonic anhydrase 12 preincubated for 15 mins by stopped-flow CO2 hydration assay
Sequence of Carbonic anhydrase 12 (O43570 whole entry, the tested form may be a part): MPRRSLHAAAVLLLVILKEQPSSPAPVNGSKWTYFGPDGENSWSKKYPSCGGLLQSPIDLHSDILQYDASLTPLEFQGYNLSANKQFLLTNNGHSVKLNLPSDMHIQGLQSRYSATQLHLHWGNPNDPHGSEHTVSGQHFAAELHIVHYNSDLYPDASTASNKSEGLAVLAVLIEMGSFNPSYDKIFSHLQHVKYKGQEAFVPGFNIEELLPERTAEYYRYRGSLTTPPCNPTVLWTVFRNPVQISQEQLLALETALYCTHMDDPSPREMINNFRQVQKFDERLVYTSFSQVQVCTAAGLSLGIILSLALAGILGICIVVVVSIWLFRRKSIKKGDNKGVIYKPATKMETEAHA

[8] = molecular target: Carbonic anhydrase 3 (Homo sapiens, UniProt P07451); assay: Inhibition of human carbonic anhydrase 3 preincubated for 15 mins by stopped-flow CO2 hydration assay
Sequence of Carbonic anhydrase 3 (P07451 whole entry): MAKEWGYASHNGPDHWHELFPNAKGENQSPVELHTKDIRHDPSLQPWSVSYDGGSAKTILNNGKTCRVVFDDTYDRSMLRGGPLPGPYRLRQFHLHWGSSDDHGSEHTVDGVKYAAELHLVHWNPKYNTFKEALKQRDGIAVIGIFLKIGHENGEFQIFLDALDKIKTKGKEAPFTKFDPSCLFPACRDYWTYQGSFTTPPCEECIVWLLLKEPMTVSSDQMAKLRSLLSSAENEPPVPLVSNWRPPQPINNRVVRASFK

[9] = molecular target: Carbonic anhydrase 6 (Homo sapiens, UniProt P23280); assay: Inhibition of human carbonic anhydrase 6 preincubated for 15 mins by stopped-flow CO2 hydration assay
Sequence of Carbonic anhydrase 6 (P23280 whole entry): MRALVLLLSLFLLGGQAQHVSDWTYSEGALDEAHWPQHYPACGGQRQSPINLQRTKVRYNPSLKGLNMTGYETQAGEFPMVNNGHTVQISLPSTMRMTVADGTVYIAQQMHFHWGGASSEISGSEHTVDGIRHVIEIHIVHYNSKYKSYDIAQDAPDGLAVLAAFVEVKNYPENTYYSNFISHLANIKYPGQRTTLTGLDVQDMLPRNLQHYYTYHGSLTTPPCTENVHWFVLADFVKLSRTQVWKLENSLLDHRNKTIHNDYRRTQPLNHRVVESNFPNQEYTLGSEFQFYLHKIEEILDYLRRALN

[10] = molecular target: Carbonic anhydrase 2 (Homo sapiens, UniProt P00918); assay: Inhibition of human carbonic anhydrase 2 preincubated for 15 mins by stopped-flow CO2 hydration assay
[11] = molecular target: Carbonic anhydrase 14 (Homo sapiens, UniProt Q9ULX7); assay: Inhibition of human carbonic anhydrase 14 preincubated for 15 mins by stopped-flow CO2 hydration assay
Sequence of Carbonic anhydrase 14 (Q9ULX7 whole entry): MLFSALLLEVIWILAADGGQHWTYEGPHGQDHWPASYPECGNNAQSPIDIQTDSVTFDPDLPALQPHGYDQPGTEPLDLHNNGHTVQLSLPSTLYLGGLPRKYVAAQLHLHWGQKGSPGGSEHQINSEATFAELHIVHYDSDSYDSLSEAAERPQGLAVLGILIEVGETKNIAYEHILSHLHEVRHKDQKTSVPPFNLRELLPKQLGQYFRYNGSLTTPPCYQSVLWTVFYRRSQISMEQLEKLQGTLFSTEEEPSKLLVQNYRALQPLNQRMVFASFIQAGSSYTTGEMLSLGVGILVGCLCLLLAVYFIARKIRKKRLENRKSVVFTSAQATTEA

[12] = molecular target: Carbonic anhydrase 13 (Mus musculus, UniProt Q9D6N1); assay: Inhibition of mouse carbonic anhydrase 13 preincubated for 15 mins by stopped-flow CO2 hydration assay
Sequence of Carbonic anhydrase 13 (Q9D6N1 whole entry): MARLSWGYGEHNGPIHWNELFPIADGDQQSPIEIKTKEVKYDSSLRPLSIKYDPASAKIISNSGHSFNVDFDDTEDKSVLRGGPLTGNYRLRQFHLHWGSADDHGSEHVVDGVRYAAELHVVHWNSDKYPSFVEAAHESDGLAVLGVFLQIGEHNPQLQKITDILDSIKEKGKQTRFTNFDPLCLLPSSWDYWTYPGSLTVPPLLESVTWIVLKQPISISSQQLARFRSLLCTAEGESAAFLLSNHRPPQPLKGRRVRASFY

Sequence of Carbonic anhydrase 7 (P43166 whole entry, the tested form may be a part): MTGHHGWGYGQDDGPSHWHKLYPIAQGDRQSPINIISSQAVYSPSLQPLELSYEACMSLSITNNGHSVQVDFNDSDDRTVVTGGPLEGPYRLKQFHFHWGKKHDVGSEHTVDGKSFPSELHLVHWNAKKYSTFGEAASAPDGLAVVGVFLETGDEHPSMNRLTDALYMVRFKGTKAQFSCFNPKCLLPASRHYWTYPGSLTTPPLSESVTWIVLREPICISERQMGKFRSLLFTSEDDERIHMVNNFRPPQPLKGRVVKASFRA
Sequence of Carbonic anhydrase 5A, mitochondrial (P35218 whole entry): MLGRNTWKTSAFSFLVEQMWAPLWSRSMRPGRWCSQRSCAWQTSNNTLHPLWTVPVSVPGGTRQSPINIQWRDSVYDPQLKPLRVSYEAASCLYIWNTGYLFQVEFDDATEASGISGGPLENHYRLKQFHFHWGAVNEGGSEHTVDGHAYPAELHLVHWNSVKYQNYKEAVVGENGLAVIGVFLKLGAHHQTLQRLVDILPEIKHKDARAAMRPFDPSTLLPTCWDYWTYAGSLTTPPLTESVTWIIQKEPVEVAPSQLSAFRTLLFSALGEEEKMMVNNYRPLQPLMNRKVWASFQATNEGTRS

Structure (SMILES)	Ki [1] [nM]	Ki [2] [nM]	Ki [3] [nM]	Ki [4] [µM]	Ki [5] [µM]	Ki [6] [nM]	Ki [7] [µM]	Ki [8] [µM]	Ki [9] [nM]	Ki [10] [µM]	Ki [11] [nM]	Ki [12] [nM]
O=C(/C=C/c1ccc(O)cc1)OCc1ccccc1	970	720	860	18.7	> 50	800	29.4	> 50	730	> 50	810	8920
O=C(/C=C/c1ccc(O)c(O)c1)OCCc1ccc(OCCc2ccc(O)cc2)cc1			930		5.23			> 50		> 50		840
O=C(/C=C/c1ccc(O)c(O)c1)OCCc1cccc(OCCc2cccc(O)c2)c1			970		9.62			> 50		> 50		900
COc1cc(/C=C/C(=O)OCCc2cccc(O)c2)ccc1O			990		> 50			> 50		> 50		910
COc1cc(/C=C/C(=O)OCc2ccccc2)ccc1O [BENZYL FERULATE]			1030		> 50			> 50		> 50		940

Molecules with a lower Ki [3], results first:

Ki [1] [nM]	Ki [2] [nM]	Ki [3] [nM]	Ki [4] [µM]	Ki [5] [µM]	Ki [6] [nM]	Ki [7] [µM]	Ki [8] [µM]	Ki [9] [nM]	Ki [10] [µM]	Ki [11] [nM]	Ki [12] [nM]	Structure (SMILES)
		710		3.87			> 50		> 50		13900	O=C(/C=C/c1ccc(O)cc1)OCCc1ccc(O)cc1
		820		3.66			> 50		> 50		11600	O=C(/C=C/c1ccc(O)cc1)OCCc1cccc(O)c1
		810		> 50			> 50		> 50		930	COc1cc(/C=C/C(=O)OCCc2ccc(O)cc2)ccc1O
